Experimental data as given in patent US8765779B2, “Tricyclic derivatives and their pharmaceutical use and compositions” (Cephalon, Inc., priority 2009, dated 2014).
Structures can show the parent of a compound that is named as a salt. Where two headings read alike, the source gives them in different places.

Molecular target: T1, human 5-HT6 receptor (Homo sapiens, UniProt P50406)
T1 construct: host or cells: CHO-K1 cells, stably transfected; membranes prepared in house
Assay: Human 5-HT6 Receptor Binding Assay ([3H]LSD displacement, scintillation beads)
Conditions: membranes of CHO-K1 cells with recombinant human 5-HT6, 4 nM [3H]LSD, read-out: h5-HT6 (Ki)

T1 sequence (P50406 whole entry): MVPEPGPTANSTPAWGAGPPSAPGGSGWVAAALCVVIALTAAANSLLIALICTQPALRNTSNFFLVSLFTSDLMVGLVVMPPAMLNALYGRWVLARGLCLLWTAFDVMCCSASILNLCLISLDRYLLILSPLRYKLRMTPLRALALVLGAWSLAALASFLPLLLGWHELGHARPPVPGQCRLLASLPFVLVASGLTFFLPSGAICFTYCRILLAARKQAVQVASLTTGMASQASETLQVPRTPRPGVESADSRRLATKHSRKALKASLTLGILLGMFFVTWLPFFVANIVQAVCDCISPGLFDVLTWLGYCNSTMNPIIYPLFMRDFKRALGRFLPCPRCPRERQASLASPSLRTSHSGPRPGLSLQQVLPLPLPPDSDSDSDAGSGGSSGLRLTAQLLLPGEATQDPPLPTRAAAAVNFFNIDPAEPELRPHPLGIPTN

Ki (Table 1, class symbols) | Ki (specific data) | SMILES
< 500 nM | – | CCCCOc1cccc(S(=O)(=O)c2ccc3c(c2)OC2CNCCC32)c1 (centres unmarked) [Example 554]
< 500 nM | – | O=S(=O)(c1cccc(OCC2CC2)c1)c1ccc2c(c1)OC1CNCCC21 (centres unmarked) [Example 555]
< 500 nM | – | COC(=O)CCCCOc1cccc(S(=O)(=O)c2ccc3c(c2)OC2CNCCC32)c1 (centres unmarked) [Example 556]
< 500 nM | – | CCCCCOc1cccc(S(=O)(=O)c2ccc3c(c2)OC2CNCCC32)c1 (centres unmarked) [Example 557]
500 to 1000 nM | – | COCCOc1cccc(S(=O)(=O)c2ccc3c(c2)OC2CNCCC32)c1 (centres unmarked) [Example 558]
< 500 nM | – | O=S(=O)(c1cccc(OCc2cccnc2)c1)c1ccc2c(c1)OC1CNCCC21 (centres unmarked) [Example 559]
> 1000 nM | – | Cn1cnc(COc2cccc(S(=O)(=O)c3ccc4c(c3)OC3CNCCC43)c2)n1 (centres unmarked) [Example 560]
< 500 nM | – | O=S(=O)(c1cccc(OCc2ccncc2)c1)c1ccc2c(c1)OC1CNCCC21 (centres unmarked) [Example 561]
< 500 nM | – | O=S(=O)(c1cccc(OCc2ccccn2)c1)c1ccc2c(c1)OC1CNCCC21 (centres unmarked) [Example 562]
> 1000 nM | – | NC(=O)COc1cccc(S(=O)(=O)c2ccc3c(c2)OC2CNCCC32)c1 (centres unmarked) [Example 563]
> 1000 nM | – | O=C(COc1cccc(S(=O)(=O)c2ccc3c(c2)OC2CNCCC32)c1)N1CCCC1 (centres unmarked) [Example 564]
< 500 nM | – | Cc1cc(COc2cccc(S(=O)(=O)c3ccc4c(c3)OC3CNCCC43)c2)no1 (centres unmarked) [Example 565]
< 500 nM | – | Cc1c(OCc2cccnc2)cccc1S(=O)(=O)c1ccc2c(c1)OC1CNCCC21 (centres unmarked) [Example 566]
< 500 nM | – | O=S(=O)(c1cccc(OCc2cnccn2)c1)c1ccc2c(c1)OC1CNCCC21 (centres unmarked) [Example 567]
< 500 nM | – | O=S(=O)(c1cccc(OCCCO)c1)c1ccc2c(c1)OC1CNCCC21 (centres unmarked) [Example 568]
< 500 nM | – | Cc1nc(COc2cccc(S(=O)(=O)c3ccc4c(c3)OC3CNCCC43)c2)cs1 (centres unmarked) [Example 569]
< 500 nM | – | O=S(=O)(c1cccc(OCC2CCOCC2)c1)c1ccc2c(c1)OC1CNCCC21 (centres unmarked) [Example 570, 7-{[3-(tetrahydro-2H-pyran-4-ylmethoxy)phenyl]sulfonyl}-1,2,3,4,4a,9a-hexahydro[1]benzofuro[2,3-c]pyridine]
< 500 nM | – | O=S(=O)(c1cccc(OC2CCOCC2)c1)c1ccc2c(c1)OC1CNCCC21 (centres unmarked) [Example 571]
< 500 nM | – | CCCOc1cccc(S(=O)(=O)c2ccc3c(c2)OC2CNCCC32)c1 (centres unmarked) [Example 572]
< 500 nM | – | O=S(=O)(c1cccc(OCCn2cccc2)c1)c1ccc2c(c1)OC1CNCCC21 (centres unmarked) [Example 573]
< 500 nM | – | N#CCCCCOc1cccc(S(=O)(=O)c2ccc3c(c2)OC2CNCCC32)c1 (centres unmarked) [Example 574]
< 500 nM | – | COc1cccc(COc2cccc(S(=O)(=O)c3ccc4c(c3)OC3CNCCC43)c2)c1 (centres unmarked) [Example 575]
< 500 nM | – | COCCCOc1cccc(S(=O)(=O)c2ccc3c(c2)OC2CNCCC32)c1 (centres unmarked) [Example 576]
< 500 nM | – | O=S(=O)(c1cccc(OCC2CCCO2)c1)c1ccc2c(c1)OC1CNCCC21 (centres unmarked) [Example 577]

Ki (Table 1, class symbols) | Ki (specific data) | SMILES
< 500 nM | – | O=S(=O)(c1cccc(OCC(F)F)c1)c1ccc2c(c1)OC1CNCCC21 (centres unmarked) [Example 578]
< 500 nM | – | O=S(=O)(c1cccc(Oc2ccccn2)c1)c1ccc2c(c1)OC1CNCCC21 (centres unmarked) [Example 579]
< 500 nM | – | O=S(=O)(c1cccc(Oc2cnccn2)c1)c1ccc2c(c1)OC1CNCCC21 (centres unmarked) [Example 580]
< 500 nM | – | O=S(=O)(c1cccc(OCC2CCOCC2)c1)c1ccc2c(c1)OC1CNCCC21 (centres unmarked) [Example 581, 7-{[3-(tetrahydro-2H-pyran-4-ylmethoxy)phenyl]sulfonyl}-1,2,3,4,4a,9a-hexahydro[1]benzofuro[2,3-c]pyridine]
< 500 nM | – | Cc1c(OCC2CCOCC2)cccc1S(=O)(=O)c1ccc2c(c1)OC1CNCCC21 (centres unmarked) [Example 582]
< 500 nM | – | COc1cc(OC2CCC2)cc(S(=O)(=O)c2ccc3c(c2)OC2CNCCC32)c1 (centres unmarked) [Example 583]
< 500 nM | – | COc1cc(OCC2CCOCC2)cc(S(=O)(=O)c2ccc3c(c2)OC2CNCCC32)c1 (centres unmarked) [Example 584]
< 500 nM | – | COc1cc(OCC2CC2)cc(S(=O)(=O)c2ccc3c(c2)OC2CNCCC32)c1 (centres unmarked) [Example 585]
< 500 nM | – | COc1cc(OC2CCCC2)cc(S(=O)(=O)c2ccc3c(c2)OC2CNCCC32)c1 (centres unmarked) [Example 586]
< 500 nM | – | CCCCOc1cc(OC)cc(S(=O)(=O)c2ccc3c(c2)OC2CNCCC32)c1 (centres unmarked) [Example 587]
< 500 nM | – | COCCCOc1cc(OC(C)C)cc(S(=O)(=O)c2ccc3c(c2)OC2CNCCC32)c1 (centres unmarked) [Example 588]
< 500 nM | – | CC(C)Oc1cc(OC(CO)CCl)cc(S(=O)(=O)c2ccc3c(c2)OC2CNCCC32)c1 (centres unmarked) [Example 589]
< 500 nM | – | CC(C)Oc1cc(OCCO)cc(S(=O)(=O)c2ccc3c(c2)OC2CNCCC32)c1 (centres unmarked) [Example 590]
< 500 nM | – | O=S(=O)(c1cc(F)cc(OCC2CCOCC2)c1)c1ccc2c(c1)OC1CNCCC21 (centres unmarked) [Example 591]
< 500 nM | – | O=S(=O)(c1ccccc1)c1ccc2c3c(oc2c1)CN(CCO)CC3 [Example 592, 2-[7-(Phenylsulfonyl)-3,4-dihydro[1]benzofuro[2,3-c]pyridin-2(1H)-yl]ethanol]
< 500 nM | – | CC(C)CN1CCc2c(oc3cc(S(=O)(=O)c4ccccc4)ccc23)C1 [Example 593]
< 500 nM | – | COCCN1CCc2c(oc3cc(S(=O)(=O)c4ccccc4)ccc23)C1 [Example 594]
< 500 nM | – | O=S(=O)(c1ccccc1)c1ccc2c3c(oc2c1)CN(CCCO)CC3 [Example 595]
< 500 nM | – | O=S(=O)(c1ccccc1)c1ccc2c3c(oc2c1)CN(CCc1ccccc1)CC3 [Example 596]
500 to 1000 nM | – | O=S(=O)(c1ccccc1)c1ccc2c3c(oc2c1)CN(Cc1ccccc1)CC3 [Example 597]
< 500 nM | – | O=S(=O)(c1ccccc1)c1ccc2c3c(oc2c1)CN(CC(F)(F)F)CC3 [Example 598]
< 500 nM | – | O=S(=O)(c1cccc(Cl)c1)c1ccc2c3c(oc2c1)CN(CCO)CC3 [Example 599]
< 500 nM | – | CC(C)CN1CCc2c(oc3cc(S(=O)(=O)c4cccc(Cl)c4)ccc23)C1 [Example 600]
< 500 nM | – | O=S(=O)(c1cccc(Cl)c1)c1ccc2c3c(oc2c1)CN(CCCO)CC3 [Example 601]

Ki (Table 1, class symbols) | Ki (specific data) | SMILES
< 500 nM | – | O=S(=O)(c1cccc(Cl)c1)c1ccc2c3c(oc2c1)CN(CCc1ccccc1)CC3 [Example 602]
< 500 nM | – | O=S(=O)(c1cccc(Cl)c1)c1ccc2c3c(oc2c1)CN(Cc1ccccc1)CC3 [Example 603]
< 500 nM | – | O=S(=O)(c1cccc(Cl)c1)c1ccc2c3c(oc2c1)CN(CC(F)(F)F)CC3 [Example 604]
500 to 1000 nM | – | CCN1CCC2c3ccc(S(=O)(=O)c4ccccc4)cc3OC2C1 (centres unmarked) [Example 605]
< 500 nM | – | O=S(=O)(c1ccccc1)c1ccc2c(c1)OC1CN(C3CCC3)CCC21 (centres unmarked) [Example 606, 2-Cyclobutyl-7-(phenylsulfonyl)-1,2,3,4,4a,9a-hexahydro[1]benzofuro[2,3-c]pyridine trifluoroacetic acid salt]
< 500 nM | – | CN1CCC2c3ccc(S(=O)(=O)c4ccccc4)cc3OC2C1 (centres unmarked) [Example 607]
< 500 nM | 49.4 nM | CC(C)N1CCC2c3ccc(S(=O)(=O)c4ccccc4)cc3OC2C1 (centres unmarked) [Example 608, 7-(phenylsulfonyl)-2-(propan-2-yl)-1,2,3,4,4a,9a-hexahydro[1]benzofuro[2,3-c]pyridine]
< 500 nM | – | O=S(=O)(c1ccccc1)c1ccc2c(c1)OC1CN(C3CCCC3)CCC21 (centres unmarked) [Example 609]
500 to 1000 nM | – | O=S(=O)(c1ccccc1)c1ccc2c(c1)OC1CN(C3CCCCC3)CCC21 (centres unmarked) [Example 610]
< 500 nM | – | O=S(=O)(c1ccccc1)c1ccc2c(c1)OC1CN(Cc3ccccc3)CCC21 (centres unmarked) [Example 611]
< 500 nM | – | COc1cc(OC(C)C)cc(S(=O)(=O)c2ccc3c(c2)OC2CN(C4CCC4)CCC32)c1 (centres unmarked) [Example 612]
> 1000 nM | – | CC(=O)N1CCC2c3ccc(S(=O)(=O)c4ccccc4)cc3OC2C1 (centres unmarked) [Example 613, 1-[7-(Phenylsulfonyl)-3,4,4a,9a-tetrahydro[1]benzofuro[2,3-c]pyridin-2(1H)-yl]ethanone]
< 500 nM | – | CC(=O)N1CCc2c(oc3cc(S(=O)(=O)c4ccccc4)ccc23)C1 [Example 614, 1-[7-(Phenylsulfonyl)-3,4-dihydro[1]benzofuro[2,3-c]pyridin-2(1H)-yl]ethanone trifluoroacetate]
< 500 nM | – | CC(=O)N1CCc2c(oc3cc(S(=O)(=O)c4cccc(Cl)c4)ccc23)C1 [Example 615, 1-{7-[(3-Chlorophenyl)sulfonyl]-3,4-dihydro[1]benzofuro[2,3-c]pyridin-2(1H)-yl}ethanone]
< 500 nM | – | O=S(=O)(c1cccc(F)c1)c1ccc2c3c(oc2c1)C1CCN1CC3 (centres unmarked) [Example 616, 8-[(3-Fluorophenyl)sulfonyl]-1,4,5,10b-tetrahydro-2H-azeto[1,2-a][1]benzofuro[2,3-c]pyridine]
< 500 nM | – | O=S(=O)(c1cccc(F)c1)c1ccc2c3c(oc2c1)C1CCCCN1CC3 (centres unmarked) [Example 617]
> 1000 nM | – | O=S(=O)(c1cccc(F)c1)c1ccc2oc3c(c2c1)CCN1CCCCC31 (centres unmarked) [Example 618]
< 500 nM | – | O=S(=O)(c1cccc(F)c1)c1ccc2oc3c(c2c1)CCN1CCC31 (centres unmarked) [Example 619]
< 500 nM | – | O=S(=O)(c1cccc(Cl)c1)c1ccc2c3c(oc2c1)C1CCCCN1CC3 (centres unmarked) [Example 620]
< 500 nM | – | O=S(=O)(c1cccc(Cl)c1)c1ccc2c3c(oc2c1)C1CCN1CC3 (centres unmarked) [Example 621]
< 500 nM | – | CC(C)Oc1cccc(S(=O)(=O)c2ccc3c(c2)OC2C3CCNC23CCC3)c1 (centres unmarked) [Example 622, 7-{[3-(Propan-2-yloxy)phenyl]sulfonyl}-3,4,4a,9a-tetrahydro-2H-spiro[1-benzofuro[2,3-c]pyridine-1,1′-cyclobutane]hydrochloride]
< 500 nM | – | CC1(C)NCCC2c3ccc(S(=O)(=O)c4cccc(F)c4)cc3OC21 (centres unmarked) [Example 624, 7-[(3-Fluorophenyl)sulfonyl]-1,1-dimethyl-1,2,3,4,4a,9a-hexahydro[1]benzofuro[2,3-c]pyridine]
